Experimental data published in US20130064890A1, “PHARMACEUTICAL FORMULATION BASED ON IBUPROFEN AND CODEINE HAVING IMPROVED STABILITY” ([…] MANUFACTURING, S.L., priority 2010, published 2013).

Assay: Differential Scanning Calorimetry (DSC) detection of incompatibilities, binary mixtures in equal parts
Format: physicochemical
Settings: mixture in equal parts with ibuprofen, heating rate 5° C./min
Method: The technique called Differential Scanning calorimetry or DSC has been used for the thermal detection of possible incompatibilities among ingredients of the pharmaceutical formulation described in the present invention. Thus, by using a differential Scanning calorimeter, DSC-7 (Perkin-Elmer, USA) at a heating rate of the samples of 5° C./min, the quantity of energy or enthalpy required to keep the sample at the same temperature as that of the reference and that at each of the test temperatures is measured. […] However, when phase changes occur, the isothermal energy required is registered as an electric signal generated by thermocouples. It is understood that a change of phase occurs (or appearance of incompatibility) if the expected temperature value varies above the considered environment by 10% with respect to its original. Said error is carried from that produced typically in the analytical measurements (±5%, typical in terms of reproducibility), the uncertainty of apparatus calibration (±1%), the accuracy of the micromixture of ingredients achieved (±3%), and the rapid heating rates (±1% for heating>1° C./min). DSC is widely used in the industry as a quality control instrument due to its applicability in assessing the purity of the samples and studying the curing of the polymers. […]

Row | Compound | thermal/physical incompatibility with ibuprofen by DSC
1 | CCCCCCCCCCCCCCCCCCOC(=O)/C=C/C(=O)[O-].[Na+] [sodium stearyl fumarate] | does not show any physical incompatibility
2 | magnesium stearate | incompatible eutectic mixture
